Patent publication US20190388389A1, “METHODS AND COMPOSITIONS OF CARNOSOL FOR INHIBITING UVB-INDUCED SKIN DAMAGE” (Ohio University, priority 2017, published 2019)

Key:
Assay type in all cases: cell-based, Human
[1] = tested on: HaCaT cells; assay: HaCaT transformation in soft agar after repeated UVB; settings: 10 mJ/cm^2 UVB every 48 h for 14 days, soft agar 10 days; UVB alone about 3.5 fold
Experimental: FIG. 8: Carnosol decreases HaCaT transformation rate upon UVB radiation. HaCaT cells were exposed to 10 mJ/cm^2 UVB radiation every 48 h for 14 days. Cells were then collected and equal amount of cells were then re-seeded into 96 well plate with soft agar. After 10 days of incubation, cells were stained and dissolved and the fluorescent intensity was determined. *p<0.05 versus control group, **p<0.05 versus UV group.
HaCaT cells were exposed to 10 mJ/cm^2 UVB radiation every 48 h for 14 days. As only cancerous cells can survive in the soft-agar, by staining the survival cells with fluorescent dye, the cell transformation rate was determined.

[2] = tested on: phosphor-Chk; assay: Western blot of DNA damage marker, HaCaT cells; settings: 15 min and 1 h post UVB 50 mJ/cm^2
Experimental: (§1) FIGS. 5A-5B: Carnosol protects UVB-induced DNA damage. (FIG. 5A) HaCaT cells and (FIG. 5B) MEF cells were exposed to 50 mJ/cm^2 UVB radiation in the presence or absence of carnosol. Cells were lysed at indicated time point and protein levels of phosphorylated H2AX and Chk were measured. The data represents three sets of independent experiments.
(§2) Cells were lysed with Nonidet P-40 (NP-40) lysis buffer (2% NP-40, 80 mM NaCl, 100 mM Tris-HCl pH 8.0, 0.1% SDS) with proteinase inhibitor mixture (Complete™, Roche Molecular Biochemicals) at indicated time point. Cell lysate was incubated on ice for 15 min and then centrifuged at 14,000 rpm at 4° C. for 15 min. Protein concentration was measured by Protein DC Assay kit (Bio-Rad Laboratories). Equal amounts of protein were subjected on SDS-PAGE and transferred to a nitrocellulose membrane. The membrane was then blocked in 5% milk in Tris buffered saline plus Tween 20 ® (TBST) for 45 min and probed with anti-yH2AX (Cell Signaling), anti-pCHK (Cell Signaling), anti-p276-NF-κB (Santa Cruz), anti-NF-κB p65 (Santa Cruz), anti-IκB (Santa Cruz), or anti-β-actin (Santa Cruz) at 4° C. overnight. After washing with TBST, the membrane was incubated with corresponding HRP-conjugated anti-rabbit or anti-mouse antibody for 45 min at room temperature. […]

[3] = tested on: γH2AX (phosphorylated H2AX); assay: Western blot of DNA damage marker, HaCaT cells; settings: 15 min and 1 h post UVB 50 mJ/cm^2
Experimental: as §1, §2

[4] = tested on: NO* in HaCaT cells; assay: Nitric oxide measurement (DAF-2DA) after UVB radiation; settings: 20 μM carnosol
Experimental: FIGS. 4A-4B: Quantitative analysis of NO* and ONOO^− after UVB radiation. HaCaT cells were irradiated with UVB radiation in the presence or absence of carnosol (20 μM). At indicated time point, cells were stained with DAF-2DA or DAR. The fluorescent intensity was then measured and normalized to cell viability. (FIG. 4A) Quantitative measurement of NO*. (FIG. 4B) Quantitative measurement of ONOO^−. *p<0.05 versus corresponded group with carnosol treatment upon UVB radiation.
The level of NO* was measured by 5 mM diaminofluorescein diacetate (DAF-2DA) (ex490/em520 nm) and ONOO^− was measured by 5 mM diaminorhodamine (DAR) (ex488/em515 nm). 1×10^5 HaCaT cells were seeded in 96-well plate one day before measurement. […] The cells were then incubated in dark for 2 h at room temperature and the fluorescence was measured by luminometer (Molecular devices Spectra Max M2). The reading was then normalized by AlamarBlue cell viability assay (Life technology). 10% of the Alamar Blue reagent was added to cells with medium followed by 2 h incubation at 37° C. in dark then read the fluorescent at ex570/em590 nm using luminometer (Molecular devices Spectra Max M2).
Both NO* and ONOO^− are induced by UVB radiation. By using DAF-2DA (5 mM) and DAR (5 mM), the effect of carnosol on intracellular NO* and ONOO^− level, in a time dependent manner upon UVB radiation, was also measured.

[5] = tested on: p-Chk; assay: Immunostaining of p-Chk in HaCaT cells upon UVB radiation; settings: immunofluorescence
Text: FIG. 5C: Immunostaining of p-Chk in HaCaT cells upon UVB radiation with or without carnosol treatment. P-Chk was stained with green fluorescent, while nucleus was stained by DAPI. Scale indicates 20 μm.
Both human keratinocyte (HaCaT) and mouse embryonic fibroblast (MEF) cells were used, and the protein levels of γH2AX and phosphor-Chk were used as DNA damage marker. […] Similar results are observed in MEF cells as both the phosphorylation level of H2AX and Chk reduced at early stage post UVB radiation (FIG. 5B). […] To further show the protection effect of carnosol on UVB-irradiated cell, a comet assay was performed. […] Thus, carnosol ast least partially protect the DNA damage from UVB radiation.

With `CC(C)c1cc2c(c(O)c1O)[C@@]13CCCC(C)(C)[C@@H]1C[C@@H]2OC3=O` [carnosol] the cell transformation [1] was “about 2.2 fold”, the “phosphorylation level of Chk” value [2] was “significantly reduced” and the “phosphorylation level of H2AX” value [3] was “significantly reduced”. For the same compound, the “reduction of NO* level” value ([4]; average from 2 h to 24 h post UVB) was “about 40%”, the “NO* level of cells without radiation” value ([4]; no UVB) was “little effect” and the “UVB-induced expression level of p-Chk in nucleus” value [5] was “significantly reduce”.
